26 compounds from PubChem BioAssay AID624167 (Sanford-Burnham Center for Chemical Genomics, 2012) can be followed below.

Activity calls are given as the source filed them.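 How the source made its calls: active means mean IC50 for reducing PEG3 promoter reporter signal at or below a set limit, with IC50 above the limit in both counter screens; inactive means the rest, including counter screen hits.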 Some results are limits rather than exact numbers.

Holding throughout (test): inhibition of PEG-3 promoter-driven reporter – cell-based, HeLa, luciferase, CREF/GAPDH counter-screen panel, dose response (AID 624167)
In one test the test system is Rat fibroblasts (CREF). Conditions: CREF/GAPDH counter-screens.
The target in test [1] is PEG-3 (UniProt Q6IN02). Conditions: HeLa PEG-Prom luciferase reporter, overnight, CREF/GAPDH counter-screens, mean of runs. A general note: A reporter such as luciferase makes a cellular process visible.
Chain of PEG-3 (UniProt Q6IN02) (Q6IN02 whole entry, looked up): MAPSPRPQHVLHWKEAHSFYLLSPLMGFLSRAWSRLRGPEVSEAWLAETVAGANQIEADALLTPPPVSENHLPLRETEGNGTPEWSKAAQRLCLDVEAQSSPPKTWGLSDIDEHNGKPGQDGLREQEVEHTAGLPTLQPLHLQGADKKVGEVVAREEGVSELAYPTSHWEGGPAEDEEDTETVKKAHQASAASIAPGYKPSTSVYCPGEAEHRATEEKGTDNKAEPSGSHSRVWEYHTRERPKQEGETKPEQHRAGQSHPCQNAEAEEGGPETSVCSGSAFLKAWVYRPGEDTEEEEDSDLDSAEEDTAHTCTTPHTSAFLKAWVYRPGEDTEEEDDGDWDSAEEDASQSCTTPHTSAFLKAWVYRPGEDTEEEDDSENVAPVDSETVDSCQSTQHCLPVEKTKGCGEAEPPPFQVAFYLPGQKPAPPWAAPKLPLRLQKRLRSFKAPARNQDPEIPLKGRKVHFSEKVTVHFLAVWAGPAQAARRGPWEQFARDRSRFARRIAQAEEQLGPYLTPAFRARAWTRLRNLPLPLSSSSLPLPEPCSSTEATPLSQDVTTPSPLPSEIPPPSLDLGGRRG
The test system of test [2] is PEG-3. Conditions: HeLa PEG-Prom luciferase reporter, overnight, CREF/GAPDH counter-screens.
[3] abbreviates: run 1, dose range 1, individual replicate IC50 per panel.
Setting [4] is: run 2, dose range 1, individual replicate IC50 per panel.

As a reminder, the IC50 is the concentration that inhibits the measured activity by half. `Cc1ccc2nc(-c3ccc4c(c3)OCCO4)cn2c1`: the IC50 in the test on Rat fibroblasts (CREF) (mean of runs) was 731 nM; with Rat fibroblasts (CREF) (setting [3]), 691 nM; with Rat fibroblasts (CREF) (setting [4]) it was 771 nM; at PEG-3 [1], 624 nM; in the test on PEG-3 [2] (setting [3]) it was 840 nM; in the test with PEG-3 [2] (setting [4]), 409 nM.
Turning to `CC(C)(C)c1ccc(C(=O)O/N=C(\N)c2ccccn2)cc1`, the IC50 in the test on Rat fibroblasts (CREF) (mean of runs) was 9840 nM; in the test with Rat fibroblasts (CREF) (setting [3]) it was 9330 nM; in the test on Rat fibroblasts (CREF) (setting [4]), 10300 nM; with PEG-3 [2] (setting [3]), 367 nM; in the test with PEG-3 [2] (setting [4]) it was over 100000 nM. The IC50 result on PEG-3 [1] was “inactive”.
For the compound `C[C@@H]1C[C@@H]([C@H](O)CC2CC(=O)NC(=O)C2)C(=O)[C@@H](C)C1`, the concentration for half-maximal inhibition (IC50) in the test on Rat fibroblasts (CREF) (mean of runs) was 8140 nM; with Rat fibroblasts (CREF) (setting [3]) it was 1850 nM; in the test on Rat fibroblasts (CREF) (setting [4]), 14400 nM; on PEG-3 [1] it was 1010 nM; in the test on PEG-3 [2] (setting [3]), 1640 nM; in the test on PEG-3 [2] (setting [4]), 373 nM.
With `CCOc1ccc(NC(=O)c2ccccn2)cc1`, the half-inhibitory concentration (IC50) in the test with Rat fibroblasts (CREF) (mean of runs) was 1280 nM; in the test on Rat fibroblasts (CREF) (setting [3]) it was 921 nM; in the test on Rat fibroblasts (CREF) (setting [4]), 1650 nM; at PEG-3 [1], 3460 nM; in the test on PEG-3 [2] (setting [3]) it was 2890 nM; in the test with PEG-3 [2] (setting [4]), 4040 nM.
Regarding `Cc1ccc2nc(C)cc(Nc3ccc([N+](=O)[O-])cc3)c2c1`, the IC50 in the test on Rat fibroblasts (CREF) (mean of runs) was 8480 nM; with Rat fibroblasts (CREF) (setting [3]) it was 8420 nM; with Rat fibroblasts (CREF) (setting [4]) it was 8540 nM; on PEG-3 [1] it was 8000 nM; in the test on PEG-3 [2] (setting [3]), 10600 nM; in the test with PEG-3 [2] (setting [4]) it was 5380 nM.
`COc1cc(SC)ccc1C(=O)Nc1nc(C)cs1`: the IC50 in the test with Rat fibroblasts (CREF) (mean of runs) was 516 nM; in the test with Rat fibroblasts (CREF) (setting [3]), 542 nM; in the test with Rat fibroblasts (CREF) (setting [4]), 490 nM; at PEG-3 [1], 2110 nM; in the test with PEG-3 [2] (setting [3]), 1690 nM; in the test with PEG-3 [2] (setting [4]), 2520 nM.
In the case of `CCCOc1ccc2cc(-c3ccccn3)c(=O)oc2c1`, the IC50 is 1330 nM in the test with Rat fibroblasts (CREF) (mean of runs); 1090 nM with Rat fibroblasts (CREF) (setting [3]); 1580 nM in the test on Rat fibroblasts (CREF) (setting [4]); 3510 nM on PEG-3 [1]; 2050 nM with PEG-3 [2] (setting [3]); 4960 nM in the test with PEG-3 [2] (setting [4]).
For `COC(=O)c1nn(-c2ccc3c(c2)CCN3C(C)=O)cc1O`, the IC50 is 4480 nM with Rat fibroblasts (CREF) (mean of runs); 5010 nM in the test with Rat fibroblasts (CREF) (setting [3]); 3950 nM in the test with Rat fibroblasts (CREF) (setting [4]); 4810 nM at PEG-3 [1]; 3930 nM with PEG-3 [2] (setting [3]); 5690 nM with PEG-3 [2] (setting [4]).
For `Cc1ccc(-c2cc3c(N=O)c4ccccc4c-3n[nH]2)cc1`, the IC50 is 18800 nM in the test on Rat fibroblasts (CREF) (mean of runs); 2730 nM in the test with Rat fibroblasts (CREF) (setting [3]); 34900 nM with Rat fibroblasts (CREF) (setting [4]); 1030 nM on PEG-3 [1]; 1200 nM in the test with PEG-3 [2] (setting [3]); 860 nM with PEG-3 [2] (setting [4]).
On to `COc1ccccc1CNCC(O)Cn1c2ccccc2c2ccccc21` (stereo unspecified), for which the IC50 was 16200 nM in the test on Rat fibroblasts (CREF) (mean of runs); 16700 nM with Rat fibroblasts (CREF) (setting [3]); 15700 nM in the test with Rat fibroblasts (CREF) (setting [4]); 8900 nM on PEG-3 [1]; 10100 nM with PEG-3 [2] (setting [3]); 7690 nM in the test on PEG-3 [2] (setting [4]).
Turning to `O=C(Nc1cccc(C(=O)O)c1)Nc1ccc2c(c1)OCO2`, the IC50 in the test on Rat fibroblasts (CREF) (mean of runs) is 17400 nM; with Rat fibroblasts (CREF) (setting [3]), 14200 nM; with Rat fibroblasts (CREF) (setting [4]) it was 20700 nM; on PEG-3 [1], 8340 nM; with PEG-3 [2] (setting [3]) it was 3500 nM; in the test on PEG-3 [2] (setting [4]), 13200 nM.
On to `C(=Cc1cnc2ccccc2n1)c1ccc2c(c1)OCO2`, for which the IC50 is 1120 nM with Rat fibroblasts (CREF) (mean of runs); 1020 nM with Rat fibroblasts (CREF) (setting [3]); 1210 nM with Rat fibroblasts (CREF) (setting [4]); 1490 nM on PEG-3 [1]; 1700 nM with PEG-3 [2] (setting [3]); 1270 nM with PEG-3 [2] (setting [4]).
Take `COc1ccc(C(=O)Nc2nc3ccccc3s2)c(OC)c1`: the IC50 in the test on Rat fibroblasts (CREF) (mean of runs) is 319 nM; with Rat fibroblasts (CREF) (setting [3]), 328 nM; in the test on Rat fibroblasts (CREF) (setting [4]) it was 309 nM; at PEG-3 [1] it was 1750 nM; in the test on PEG-3 [2] (setting [3]), 2560 nM; in the test on PEG-3 [2] (setting [4]) it was 950 nM.
Regarding `O=c1oc2ccccc2cc1-c1cn2ccccc2n1`, the IC50 was 4470 nM with Rat fibroblasts (CREF) (mean of runs); 2840 nM in the test on Rat fibroblasts (CREF) (setting [3]); 6100 nM with Rat fibroblasts (CREF) (setting [4]); 2740 nM on PEG-3 [1]; 2310 nM in the test on PEG-3 [2] (setting [3]); 3170 nM in the test on PEG-3 [2] (setting [4]).
On to `Brc1ccc(N=Nc2ccc3ccccc3n2)cc1`, for which the IC50 in the test on Rat fibroblasts (CREF) (mean of runs) was 456 nM; with Rat fibroblasts (CREF) (setting [3]), 213 nM; with Rat fibroblasts (CREF) (setting [4]), 698 nM; at PEG-3 [1] it was 6100 nM; in the test with PEG-3 [2] (setting [3]) it was 5750 nM; in the test with PEG-3 [2] (setting [4]) it was 6450 nM.
For the compound `CC1CCCN(c2ncnc3c2cnn3-c2ccc(Cl)cc2)C1` (stereo unspecified), the IC50 in the test on Rat fibroblasts (CREF) (mean of runs) is 1980 nM; in the test with Rat fibroblasts (CREF) (setting [3]) it was 1780 nM; in the test on Rat fibroblasts (CREF) (setting [4]), 2170 nM; on PEG-3 [1] it was 7200 nM; in the test on PEG-3 [2] (setting [3]) it was 6000 nM; with PEG-3 [2] (setting [4]), 8400 nM.
Consider `OCC1OC(n2ccc3c(NO)ncnc32)C(O)C1O` (stereo unspecified), for which the IC50 is 3210 nM in the test on Rat fibroblasts (CREF) (mean of runs); 2780 nM in the test on Rat fibroblasts (CREF) (setting [3]); 3640 nM with Rat fibroblasts (CREF) (setting [4]); 378 nM on PEG-3 [1]; 433 nM in the test with PEG-3 [2] (setting [3]); 323 nM in the test on PEG-3 [2] (setting [4]).
For the compound `O=C(NC(=O)c1ccccc1)Nc1ccccn1`, the IC50 was 751 nM with Rat fibroblasts (CREF) (mean of runs); 676 nM with Rat fibroblasts (CREF) (setting [3]); 825 nM in the test with Rat fibroblasts (CREF) (setting [4]); 1570 nM on PEG-3 [1]; 1250 nM in the test on PEG-3 [2] (setting [3]); 1880 nM in the test on PEG-3 [2] (setting [4]).
As for `O=C(COc1ccc(Cl)cc1Cl)Nc1ccccn1`, the 50% inhibitory concentration (IC50) with Rat fibroblasts (CREF) (mean of runs) was 904 nM; in the test on Rat fibroblasts (CREF) (setting [3]), 795 nM; in the test on Rat fibroblasts (CREF) (setting [4]), 1010 nM; at PEG-3 [1] it was 930 nM; with PEG-3 [2] (setting [3]) it was 1270 nM; in the test on PEG-3 [2] (setting [4]), 594 nM.
For `COc1ccc(CCN2C(=O)C=CC2=O)cc1OC`, the IC50 is 7920 nM in the test on Rat fibroblasts (CREF) (mean of runs); 6390 nM in the test with Rat fibroblasts (CREF) (setting [3]); 9450 nM in the test with Rat fibroblasts (CREF) (setting [4]); 8690 nM at PEG-3 [1]; 10000 nM in the test with PEG-3 [2] (setting [3]); 7390 nM with PEG-3 [2] (setting [4]).
Take `C(=N\Nc1nc2ccccc2[nH]1)/c1ccccn1`: the IC50 is 1480 nM with Rat fibroblasts (CREF) (mean of runs); 1140 nM in the test on Rat fibroblasts (CREF) (setting [3]); 1830 nM in the test with Rat fibroblasts (CREF) (setting [4]); 4060 nM at PEG-3 [1]; 4260 nM in the test on PEG-3 [2] (setting [3]); 3870 nM in the test with PEG-3 [2] (setting [4]).
Consider `NC(Cc1ccc(F)cc1)c1csc(Nc2cc(Oc3ccccc3)ncn2)n1` (stereo unspecified), for which the half-maximal inhibitory concentration (IC50) with Rat fibroblasts (CREF) (mean of runs) was 17200 nM; in the test on Rat fibroblasts (CREF) (setting [3]) it was 21300 nM; in the test on Rat fibroblasts (CREF) (setting [4]) it was 13100 nM; at PEG-3 [1], 10200 nM; in the test with PEG-3 [2] (setting [3]) it was 13200 nM; in the test with PEG-3 [2] (setting [4]), 7160 nM.
For `C=CCn1c(C)cc(C(=O)CN2C(=O)c3ccccc3S2(=O)=O)c1C`, the IC50 is 2710 nM in the test with Rat fibroblasts (CREF) (mean of runs); 1680 nM in the test on Rat fibroblasts (CREF) (setting [3]); 3730 nM with Rat fibroblasts (CREF) (setting [4]); 550 nM at PEG-3 [1]; 795 nM in the test on PEG-3 [2] (setting [3]); 306 nM in the test on PEG-3 [2] (setting [4]).
Consider `O=C(Nc1ccc([N+](=O)[O-])cc1)C(=O)Nc1cccc(C(=O)O)c1`, for which the IC50 was 2670 nM in the test with Rat fibroblasts (CREF) (mean of runs); 2350 nM in the test with Rat fibroblasts (CREF) (setting [3]); 3000 nM with Rat fibroblasts (CREF) (setting [4]); 1230 nM at PEG-3 [1]; 1050 nM in the test with PEG-3 [2] (setting [3]); 1400 nM in the test with PEG-3 [2] (setting [4]).
In the case of `Cc1cccc(CS(=O)(=O)c2ncc(Cl)c(C(=O)Nc3ccc(F)cc3)n2)c1`, the IC50 was 2020 nM in the test on Rat fibroblasts (CREF) (mean of runs); over 80000 nM with Rat fibroblasts (CREF) (setting [3]); 2020 nM in the test with Rat fibroblasts (CREF) (setting [4]); 4730 nM at PEG-3 [1]; 6010 nM in the test on PEG-3 [2] (setting [3]); 3440 nM in the test on PEG-3 [2] (setting [4]).
Turning to `COc1ccc(OCc2cccc(C(=O)O)c2)cc1`, the IC50 was 10500 nM with Rat fibroblasts (CREF) (mean of runs); 10200 nM with Rat fibroblasts (CREF) (setting [3]); 10800 nM with Rat fibroblasts (CREF) (setting [4]); 327 nM on PEG-3 [1]; 263 nM in the test with PEG-3 [2] (setting [3]); 390 nM in the test with PEG-3 [2] (setting [4]).
